Tests used:
Axl = molecular target: T1, Axl (Homo sapiens, UniProt P30530); assay: PamStation PTK kinomic profiling; format: cell-based; conditions: change from DMSO control
T1 construct: cell lysates were prepared; endogenous in cells; host or cells: SW480 and RKO
Method: (§1) SW480 and RKO cells were treated with vehicle (DMSO), JAK/HDACi, regorafenib, and their combination for 45 min, and cell lysates were prepared. Tyrosine kinase (PTK) activity (kinomic) profiling was performed using the PamStation®12 platform (PamGene, BV, The Netherlands). As per standard kinomic protocol as described previously. Whole-chip comparative analysis (BioNavigator Upkin PTK v8.0) was performed between groups generating Mean Kinase Statistics (direction of change).

HER2 = molecular target: T2, HER2 (Homo sapiens, UniProt P04626); assay: PamStation PTK kinomic profiling; format: cell-based; conditions: change from DMSO control
T2 construct: cell lysates were prepared; endogenous in cells; host or cells: SW480 and RKO
Method: as §1

FGFR1 = assay: PamStation PTK kinomic profiling; format: cell-based; conditions: change from DMSO control
Method: as §1

EphA4 = molecular target: T3, EphA4 (Homo sapiens, UniProt P54764); assay: PamStation PTK kinomic profiling; format: cell-based; conditions: change from DMSO control
T3 construct: cell lysates were prepared; endogenous in cells; host or cells: SW480 and RKO
Method: as §1

Fgr = molecular target: T4, Fgr (Homo sapiens, UniProt P09769); assay: PamStation PTK kinomic profiling; format: cell-based; conditions: change from DMSO control
T4 construct: we conducted kinome analysis on lysates of SW480 and RKO cells; endogenous in cells; host or cells: SW480 and RKO cells
T4 sequence (P09769 whole entry): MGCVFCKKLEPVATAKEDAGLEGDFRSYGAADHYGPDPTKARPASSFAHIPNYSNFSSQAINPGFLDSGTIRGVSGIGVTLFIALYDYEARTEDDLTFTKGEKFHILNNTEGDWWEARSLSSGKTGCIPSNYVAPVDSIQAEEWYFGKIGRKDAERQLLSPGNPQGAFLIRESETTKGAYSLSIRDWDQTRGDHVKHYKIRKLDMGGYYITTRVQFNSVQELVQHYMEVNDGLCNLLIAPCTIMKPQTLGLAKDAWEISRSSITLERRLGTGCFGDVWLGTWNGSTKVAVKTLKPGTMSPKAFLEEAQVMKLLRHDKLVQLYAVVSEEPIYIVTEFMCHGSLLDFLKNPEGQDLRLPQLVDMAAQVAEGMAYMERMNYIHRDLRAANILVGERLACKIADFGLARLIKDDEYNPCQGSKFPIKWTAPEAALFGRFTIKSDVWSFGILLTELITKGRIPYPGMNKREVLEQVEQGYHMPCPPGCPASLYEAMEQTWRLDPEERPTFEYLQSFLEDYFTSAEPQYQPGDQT
Method: as §1

FLT4 = molecular target: T5, FLT4 (Homo sapiens, UniProt P35916); assay: PamStation PTK kinomic profiling; format: cell-based; conditions: change from DMSO control
T5 construct: cell lysates were prepared; endogenous in cells; host or cells: SW480 and RKO
T5 sequence (P35916 25-1363): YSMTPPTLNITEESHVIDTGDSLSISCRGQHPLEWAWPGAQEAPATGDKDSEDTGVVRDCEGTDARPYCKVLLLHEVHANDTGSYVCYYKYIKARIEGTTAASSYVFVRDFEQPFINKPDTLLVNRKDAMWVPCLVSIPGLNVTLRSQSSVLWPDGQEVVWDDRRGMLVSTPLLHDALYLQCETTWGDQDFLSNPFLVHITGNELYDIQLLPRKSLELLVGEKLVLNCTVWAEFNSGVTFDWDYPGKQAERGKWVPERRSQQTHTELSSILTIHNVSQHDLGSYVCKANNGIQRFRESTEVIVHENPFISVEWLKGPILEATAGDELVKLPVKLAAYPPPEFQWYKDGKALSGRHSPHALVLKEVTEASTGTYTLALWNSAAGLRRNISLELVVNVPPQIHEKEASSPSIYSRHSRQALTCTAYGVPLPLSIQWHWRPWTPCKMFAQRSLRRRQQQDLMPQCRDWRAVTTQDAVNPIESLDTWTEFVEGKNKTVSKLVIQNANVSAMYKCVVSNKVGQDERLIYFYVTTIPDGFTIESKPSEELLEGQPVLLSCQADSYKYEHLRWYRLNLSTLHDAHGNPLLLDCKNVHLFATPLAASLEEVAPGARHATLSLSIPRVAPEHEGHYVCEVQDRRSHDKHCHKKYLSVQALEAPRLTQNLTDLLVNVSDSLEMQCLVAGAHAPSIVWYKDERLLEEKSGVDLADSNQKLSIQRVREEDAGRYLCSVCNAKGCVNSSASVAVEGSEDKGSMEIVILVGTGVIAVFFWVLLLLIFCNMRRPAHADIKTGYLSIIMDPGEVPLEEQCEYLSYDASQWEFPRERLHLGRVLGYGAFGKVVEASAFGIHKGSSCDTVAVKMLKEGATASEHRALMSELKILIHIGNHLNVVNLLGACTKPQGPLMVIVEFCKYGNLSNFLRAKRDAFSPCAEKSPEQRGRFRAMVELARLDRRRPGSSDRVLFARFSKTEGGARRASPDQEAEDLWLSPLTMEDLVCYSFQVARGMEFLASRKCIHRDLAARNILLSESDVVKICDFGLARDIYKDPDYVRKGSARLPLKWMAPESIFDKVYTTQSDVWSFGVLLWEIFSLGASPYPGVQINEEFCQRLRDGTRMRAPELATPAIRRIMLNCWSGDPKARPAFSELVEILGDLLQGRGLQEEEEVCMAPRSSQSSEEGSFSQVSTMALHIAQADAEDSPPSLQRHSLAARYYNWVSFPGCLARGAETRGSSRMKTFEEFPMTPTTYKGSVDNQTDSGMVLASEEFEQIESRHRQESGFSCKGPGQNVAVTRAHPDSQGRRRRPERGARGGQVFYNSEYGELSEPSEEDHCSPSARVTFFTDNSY
Method: as §1

EphA2 = molecular target: T6, EphA2 (Homo sapiens, UniProt P29317); assay: PamStation PTK kinomic profiling; format: cell-based; conditions: change from DMSO control
T6 construct: cell lysates were prepared; endogenous in cells; host or cells: SW480 and RKO
T6 sequence (P29317 24-976): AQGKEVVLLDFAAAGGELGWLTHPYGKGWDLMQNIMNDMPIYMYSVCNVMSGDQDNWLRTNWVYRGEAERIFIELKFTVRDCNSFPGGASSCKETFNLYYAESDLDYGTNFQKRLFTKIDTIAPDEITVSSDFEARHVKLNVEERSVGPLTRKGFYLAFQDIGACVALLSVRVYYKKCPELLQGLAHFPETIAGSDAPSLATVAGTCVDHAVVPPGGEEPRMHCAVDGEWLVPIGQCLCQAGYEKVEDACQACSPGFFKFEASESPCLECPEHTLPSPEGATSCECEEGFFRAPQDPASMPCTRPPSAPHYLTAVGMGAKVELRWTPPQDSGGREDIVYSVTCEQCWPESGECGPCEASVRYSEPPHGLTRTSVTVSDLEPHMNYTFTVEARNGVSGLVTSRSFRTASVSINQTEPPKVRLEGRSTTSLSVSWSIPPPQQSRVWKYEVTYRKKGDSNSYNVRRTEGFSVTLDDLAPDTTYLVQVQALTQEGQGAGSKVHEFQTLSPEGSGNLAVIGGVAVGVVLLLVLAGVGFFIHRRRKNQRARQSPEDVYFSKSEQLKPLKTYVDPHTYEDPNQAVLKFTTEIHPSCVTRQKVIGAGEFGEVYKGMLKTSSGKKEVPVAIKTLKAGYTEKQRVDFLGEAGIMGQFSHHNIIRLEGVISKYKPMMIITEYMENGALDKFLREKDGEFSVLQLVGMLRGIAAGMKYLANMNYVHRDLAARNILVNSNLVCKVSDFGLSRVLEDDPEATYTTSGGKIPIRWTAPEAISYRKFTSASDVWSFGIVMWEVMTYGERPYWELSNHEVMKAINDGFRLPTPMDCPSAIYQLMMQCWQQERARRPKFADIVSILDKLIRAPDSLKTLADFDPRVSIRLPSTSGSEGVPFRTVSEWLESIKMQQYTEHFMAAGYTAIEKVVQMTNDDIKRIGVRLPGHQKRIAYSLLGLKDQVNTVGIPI
Method: as §1

EphA5 = molecular target: T7, EphA5 (Homo sapiens, UniProt P54756); assay: PamStation PTK kinomic profiling; format: cell-based; conditions: change from DMSO control
T7 construct: cell lysates were prepared; endogenous in cells; host or cells: SW480 and RKO
Method: as §1

PDGFR[alpha] = molecular target: T8, PDGFR[alpha] (Homo sapiens, UniProt P16234); assay: PamStation PTK kinomic profiling; format: cell-based; conditions: change from DMSO control
T8 construct: cell lysates were prepared; endogenous in cells; host or cells: SW480 and RKO
Method: as §1

EGFR = molecular target: T9, EGFR (Homo sapiens, UniProt P00533); assay: PamStation PTK kinomic profiling; format: cell-based; conditions: change from DMSO control
T9 construct: cell lysates were prepared; endogenous in cells; host or cells: SW480 and RKO
Method: as §1

JAK1~b = molecular target: T10, JAK1~b (Homo sapiens, UniProt P23458); assay: PamStation PTK kinomic profiling; format: cell-based; conditions: change from DMSO control
T10 construct: cell lysates were prepared; endogenous in cells; host or cells: SW480 and RKO
Method: as §1

FGFR4 = molecular target: T11, FGFR4 (Homo sapiens, UniProt P22455); assay: PamStation PTK kinomic profiling; format: cell-based; conditions: change from DMSO control
T11 construct: cell lysates were prepared; endogenous in cells; host or cells: SW480 and RKO
T11 sequence (P22455 22-802): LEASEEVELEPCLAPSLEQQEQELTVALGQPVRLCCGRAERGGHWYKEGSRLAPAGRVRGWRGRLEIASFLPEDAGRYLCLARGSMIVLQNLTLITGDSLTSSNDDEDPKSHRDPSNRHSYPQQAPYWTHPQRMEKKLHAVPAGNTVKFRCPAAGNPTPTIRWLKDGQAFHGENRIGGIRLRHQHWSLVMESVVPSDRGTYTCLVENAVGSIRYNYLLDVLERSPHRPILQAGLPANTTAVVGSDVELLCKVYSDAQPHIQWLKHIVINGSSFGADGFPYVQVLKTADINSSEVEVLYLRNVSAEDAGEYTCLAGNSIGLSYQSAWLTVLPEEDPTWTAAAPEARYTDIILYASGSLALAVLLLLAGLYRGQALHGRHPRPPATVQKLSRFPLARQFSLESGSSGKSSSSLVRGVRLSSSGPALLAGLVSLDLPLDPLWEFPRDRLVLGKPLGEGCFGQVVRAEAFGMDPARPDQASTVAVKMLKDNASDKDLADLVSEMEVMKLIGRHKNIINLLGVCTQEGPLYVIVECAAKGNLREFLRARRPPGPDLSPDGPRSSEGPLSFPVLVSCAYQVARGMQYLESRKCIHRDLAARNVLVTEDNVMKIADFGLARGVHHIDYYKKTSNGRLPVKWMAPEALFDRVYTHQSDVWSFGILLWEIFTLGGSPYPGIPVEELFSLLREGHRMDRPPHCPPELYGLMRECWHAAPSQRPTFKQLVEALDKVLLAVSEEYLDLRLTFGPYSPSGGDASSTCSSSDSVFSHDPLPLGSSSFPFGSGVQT
Method: as §1

FAK1 = molecular target: T12, FAK1 (Homo sapiens, UniProt Q05397); assay: PamStation PTK kinomic profiling; format: cell-based; conditions: change from DMSO control
T12 construct: cell lysates were prepared; endogenous in cells; host or cells: SW480 and RKO
Method: as §1

EphA3 = molecular target: T13, EphA3 (Homo sapiens, UniProt P29320); assay: PamStation PTK kinomic profiling; format: cell-based; conditions: change from DMSO control
T13 construct: cell lysates were prepared; endogenous in cells; host or cells: SW480 and RKO
Method: as §1

EphA1 = molecular target: T14, EphA1 (Homo sapiens, UniProt P21709); assay: PamStation PTK kinomic profiling; format: cell-based; conditions: change from DMSO control
T14 construct: cell lysates were prepared; endogenous in cells; host or cells: SW480 and RKO
Method: as §1

PDGFR[beta] = molecular target: T15, PDGFR[beta] (Homo sapiens, UniProt P09619); assay: PamStation PTK kinomic profiling; format: cell-based; conditions: change from DMSO control
T15 construct: cell lysates were prepared; endogenous in cells; host or cells: SW480 and RKO
T15 sequence (P09619 33-1106): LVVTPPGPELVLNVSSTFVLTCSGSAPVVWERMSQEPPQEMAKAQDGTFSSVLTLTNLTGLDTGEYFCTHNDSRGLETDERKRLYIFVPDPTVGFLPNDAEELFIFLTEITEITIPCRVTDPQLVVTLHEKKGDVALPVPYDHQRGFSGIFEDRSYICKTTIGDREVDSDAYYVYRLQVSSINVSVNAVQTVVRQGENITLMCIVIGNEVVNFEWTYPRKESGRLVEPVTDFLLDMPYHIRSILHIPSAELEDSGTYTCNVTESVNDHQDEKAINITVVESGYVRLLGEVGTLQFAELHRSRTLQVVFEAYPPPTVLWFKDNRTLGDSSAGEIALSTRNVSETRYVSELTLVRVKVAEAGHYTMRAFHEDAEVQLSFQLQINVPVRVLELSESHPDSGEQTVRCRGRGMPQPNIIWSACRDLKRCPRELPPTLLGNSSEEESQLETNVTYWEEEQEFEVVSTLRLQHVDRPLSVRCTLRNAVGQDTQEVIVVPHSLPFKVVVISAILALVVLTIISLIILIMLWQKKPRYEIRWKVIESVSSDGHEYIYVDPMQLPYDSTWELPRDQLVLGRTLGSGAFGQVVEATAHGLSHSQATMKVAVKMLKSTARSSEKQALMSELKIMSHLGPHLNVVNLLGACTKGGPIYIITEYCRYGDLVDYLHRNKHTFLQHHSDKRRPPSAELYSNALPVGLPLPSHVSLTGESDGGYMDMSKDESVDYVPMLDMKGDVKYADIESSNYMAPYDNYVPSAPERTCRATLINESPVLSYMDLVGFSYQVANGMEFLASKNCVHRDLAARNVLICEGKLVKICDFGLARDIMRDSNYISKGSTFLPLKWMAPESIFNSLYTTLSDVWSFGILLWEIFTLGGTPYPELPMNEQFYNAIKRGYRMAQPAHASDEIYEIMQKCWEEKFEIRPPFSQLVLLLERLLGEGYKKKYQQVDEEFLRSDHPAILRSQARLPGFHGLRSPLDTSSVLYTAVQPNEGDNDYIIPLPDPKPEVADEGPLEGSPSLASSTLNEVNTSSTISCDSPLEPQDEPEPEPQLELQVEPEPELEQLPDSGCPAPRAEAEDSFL
Method: as §1

Src = molecular target: T16, Src (Homo sapiens, UniProt P12931); assay: PamStation PTK kinomic profiling; format: cell-based; conditions: change from DMSO control
T16 construct: cell lysates were prepared; endogenous in cells; host or cells: SW480 and RKO
Method: as §1

[1] = system: luciferase-tagged HT29 cells; assay: HT29 luciferase experimental metastasis model; format: in vivo; conditions: NSG mice
Method: To assess the effect of JAK/HDACi, regorafenib and their combination drug treatments on metastasis, an experiment was performed with 6-week-old NOD/SCID/IL2γ receptor-null (NSG) mice (male and female) as described. All procedures and experimental protocols were approved and conducted in compliance (IACUC-21501). For metastasis experiments, as described previously, tail vein injections with HT29 cells (0.5 × 10^6) carrying a luciferase expression construct were conducted. Mice were imaged at 0, 10, and 30 days post injection, and treated with vehicle or drugs (with JAK/HDACi, regorafenib and their combination). Drug treatments were performed as described in PDX experiment. Bioluminescence imaging was accomplished using an IVIS Lumina III instrument (Perkin Elmer, Waltham, MA), and mice were injected with luciferin 10 min prior to imaging. After 30 days, mouse lungs and kidneys were dissected, and ex vivo analyses were performed.

For CNC(=O)c1cc(Oc2ccc(NC(=O)Nc3ccc(Cl)c(C(F)(F)F)c3)c(F)c2)ccn1 [regorafenib], the “Mean Kinase Statistic, Axl” value (Axl; RKO, 45 min) was -0.027, the “Mean Kinase Statistic, Axl” value (Axl; SW480, 45 min) was -0.146 and the “Mean Kinase Statistic, HER2” value (HER2; RKO, 45 min) was 0.090. The “Mean Kinase Statistic, HER2” value (HER2; SW480, 45 min) was -0.225, the “Mean Kinase Statistic, FGFR1” value (FGFR1; RKO, 45 min) was 0.199 and the “Mean Kinase Statistic, FGFR1” value (FGFR1; SW480, 45 min) was -0.180. For the same compound, the “Mean Kinase Statistic, EphA4” value (EphA4; RKO, 45 min) was -0.122, the “Mean Kinase Statistic, EphA4” value (EphA4; SW480, 45 min) was -0.155 and the “Mean Kinase Statistic, Fgr” value (Fgr; RKO, 45 min) was -0.272. The “Mean Kinase Statistic, Fgr” value (Fgr; SW480, 45 min) was -0.185, the “Mean Kinase Statistic, FLT4” value (FLT4; RKO, 45 min) was 0.133 and the “Mean Kinase Statistic, FLT4” value (FLT4; SW480, 45 min) was -0.234. The “Mean Kinase Statistic, EphA2” value (EphA2; RKO, 45 min) was 0.225, the “Mean Kinase Statistic, EphA2” value (EphA2; SW480, 45 min) was -0.097 and the “Mean Kinase Statistic, EphA5” value (EphA5; RKO, 45 min) was -0.050. The “Mean Kinase Statistic, EphA5” value (EphA5; SW480, 45 min) was -0.324, the “Mean Kinase Statistic, PDGFR[alpha]” value (PDGFR[alpha]; RKO, 45 min) was 0.135 and the “Mean Kinase Statistic, PDGFR[alpha]” value (PDGFR[alpha]; SW480, 45 min) was -0.175. For the same compound, the “Mean Kinase Statistic, EGFR” value (EGFR; RKO, 45 min) was 0.026, the “Mean Kinase Statistic, EGFR” value (EGFR; SW480, 45 min) was -0.125 and the “Mean Kinase Statistic, JAK1~b” value (JAK1~b; RKO, 45 min) was 0.393. The “Mean Kinase Statistic, JAK1~b” value (JAK1~b; SW480, 45 min) was -0.185, the “Mean Kinase Statistic, FGFR4” value (FGFR4; RKO, 45 min) was 0.215 and the “Mean Kinase Statistic, FGFR4” value (FGFR4; SW480, 45 min) was -0.166. For the same compound, the “Mean Kinase Statistic, FAK1” value (FAK1; RKO, 45 min) was 0.052, the “Mean Kinase Statistic, FAK1” value (FAK1; SW480, 45 min) was -0.131 and the “Mean Kinase Statistic, EphA3” value (EphA3; RKO, 45 min) was 0.028. For the same compound, the “Mean Kinase Statistic, EphA3” value (EphA3; SW480, 45 min) was -0.136, the “Mean Kinase Statistic, EphA1” value (EphA1; RKO, 45 min) was 0.168 and the “Mean Kinase Statistic, EphA1” value (EphA1; SW480, 45 min) was -0.125. The “Mean Kinase Statistic, PDGFR[beta]” value (PDGFR[beta]; RKO, 45 min) was 0.140, the “Mean Kinase Statistic, PDGFR[beta]” value (PDGFR[beta]; SW480, 45 min) was -0.203 and the “Mean Kinase Statistic, Src” value (Src; RKO, 45 min) was -0.068. For the same compound, the “Mean Kinase Statistic, Src” value (Src; SW480, 45 min) was -0.128 and the “bioluminescence intensity on day 30th” value [1] was “reduced intensities”.

Source: publication PMC11238352, “Combination of dual JAK/HDAC inhibitor with regorafenib synergistically reduces tumor growth, metastasis, and regorafenib-induced toxicity in colorectal cancer” (Journal of Experimental & Clinical Cancer Research : CR, 2024)
